Measurements from the NIST ThermoML archive (doi:10.1021/je050010l).

Experiments:
[1] = xn = mol fraction of the nth substance listed; conditions: 100.8 kPa, Liquid; for viscosity: Capillary tube (Ostwald / Ubbelohde) method
[2] = refractive index (Na D-line) (dimensionless); xn = mol fraction of the nth substance listed; conditions: 100.8 kPa, Liquid, Standard Abbe refractometry

CC(C)CC(C)(C)C [2,2,4-trimethylpentane] + CCO
Conditions | mass density, 288.15 K [kg/m3] | mass density, 298.15 K [kg/m3] | mass density, 308.15 K [kg/m3] | refractive index, 288.15 K | refractive index, 298.15 K | refractive index, 308.15 K | viscosity, 288.15 K [mPa·s] | viscosity, 298.15 K [mPa·s] | viscosity, 308.15 K [mPa·s]
[1], x2 = 0 | 695.95 | 687.74 | 679.41 | – | – | – | 0.537 | 0.48 | 0.432
[1], x2 = 0.0502 | 697.2 | 688.84 | 680.36 | – | – | – | 0.532 | 0.473 | 0.424
[1], x2 = 0.1 | 698.76 | 690.33 | 681.76 | – | – | – | 0.535 | 0.476 | 0.426
[1], x2 = 0.15 | 700.55 | 692.11 | 683.52 | – | – | – | 0.542 | 0.48 | 0.429
[1], x2 = 0.2 | 702.53 | 694.07 | 685.43 | – | – | – | 0.551 | 0.487 | 0.434
[1], x2 = 0.25 | 704.71 | 696.21 | 687.56 | – | – | – | 0.564 | 0.497 | 0.441
[1], x2 = 0.3 | 707.1 | 698.57 | 689.88 | – | – | – | 0.58 | 0.51 | 0.451
[1], x2 = 0.35 | 709.71 | 701.17 | 692.45 | – | – | – | 0.601 | 0.526 | 0.462
[1], x2 = 0.4 | 712.6 | 704.03 | 695.3 | – | – | – | 0.625 | 0.543 | 0.476
[1], x2 = 0.45 | 715.8 | 707.2 | 698.44 | – | – | – | 0.652 | 0.565 | 0.492
[1], x2 = 0.5 | 719.31 | 710.68 | 701.91 | – | – | – | 0.682 | 0.588 | 0.51
[1], x2 = 0.55 | 723.22 | 714.59 | 705.8 | – | – | – | 0.718 | 0.615 | 0.531
[1], x2 = 0.6 | 727.55 | 718.9 | 710.11 | – | – | – | 0.755 | 0.645 | 0.554
[1], x2 = 0.65 | 732.37 | 723.73 | 714.93 | – | – | – | 0.797 | 0.677 | 0.58
[1], x2 = 0.7 | 737.81 | 729.14 | 720.34 | – | – | – | 0.843 | 0.715 | 0.609
[1], x2 = 0.75 | 743.99 | 735.34 | 726.54 | – | – | – | 0.894 | 0.755 | 0.642
[1], x2 = 0.8 | 751.11 | 742.37 | 733.58 | – | – | – | 0.952 | 0.801 | 0.678
[1], x2 = 0.85 | 759.27 | 750.54 | 741.75 | – | – | – | 1.018 | 0.854 | 0.72
[1], x2 = 0.9 | 768.81 | 760.17 | 751.44 | – | – | – | 1.095 | 0.915 | 0.769
[1], x2 = 0.95 | 780.26 | 771.59 | 762.84 | – | – | – | 1.19 | 0.991 | 0.828
[2], x2 = 0 | – | – | – | 1.39404 | 1.389 | 1.38395 | – | – | –
[2], x2 = 0.0502 | – | – | – | 1.39319 | 1.3881 | 1.38297 | – | – | –
[2], x2 = 0.1 | – | – | – | 1.39241 | 1.3873 | 1.38217 | – | – | –
[2], x2 = 0.15 | – | – | – | 1.39162 | 1.38651 | 1.38138 | – | – | –
[2], x2 = 0.2 | – | – | – | 1.39081 | 1.38569 | 1.38056 | – | – | –
[2], x2 = 0.25 | – | – | – | 1.38996 | 1.38485 | 1.37972 | – | – | –
[2], x2 = 0.3 | – | – | – | 1.38907 | 1.38397 | 1.37885 | – | – | –
[2], x2 = 0.35 | – | – | – | 1.38811 | 1.38304 | 1.37794 | – | – | –
[2], x2 = 0.4 | – | – | – | 1.38709 | 1.38204 | 1.37696 | – | – | –
[2], x2 = 0.45 | – | – | – | 1.38597 | 1.38099 | 1.37593 | – | – | –
[2], x2 = 0.5 | – | – | – | 1.38479 | 1.37984 | 1.3748 | – | – | –
[2], x2 = 0.55 | – | – | – | 1.3835 | 1.37858 | 1.37358 | – | – | –
[2], x2 = 0.6 | – | – | – | 1.38209 | 1.37722 | 1.37227 | – | – | –
[2], x2 = 0.65 | – | – | – | 1.38055 | 1.37573 | 1.37083 | – | – | –
[2], x2 = 0.7 | – | – | – | 1.37884 | 1.37408 | 1.36922 | – | – | –
[2], x2 = 0.75 | – | – | – | 1.37694 | 1.37225 | 1.36745 | – | – | –
[2], x2 = 0.8 | – | – | – | 1.37484 | 1.3702 | 1.3655 | – | – | –
[2], x2 = 0.85 | – | – | – | 1.37249 | 1.36792 | 1.3633 | – | – | –
[2], x2 = 0.9 | – | – | – | 1.36984 | 1.36536 | 1.36085 | – | – | –
[2], x2 = 0.95 | – | – | – | 1.36684 | 1.36248 | 1.35812 | – | – | –
